Measured values reported in US20240076347A1, “METHODS FOR PREVENTING FUNGAL INFECTIONS” (Cidara Therapeutics, Inc., priority 2016, published 2024).
Values joined by “and” are separate entries in the source; they are usually repeats but may differ in a detail not shown here. Equal entries are not always repeated. Numbered stars: 1 amine (or outer) side, 2 acyl side, 3 side chain; on linkers, the order of the positions; unused ones are H or OH. Bridge positions count the residues as written; N and C are the ends. Square brackets hold non-standard residues; d marks the D form. Peptide text beside a SMILES is read from it. * marks the point of attachment. ξ: configuration not given here. Orn(4R-OH,5R-OCH2CH2NMe3+) = C[N+](C)(C)CCO[C@@H](N[*:3])[C@H](O)C[C@H](N[*:1])C(=O)[*:2]; pTerphenylCO(4''-OnC5H11) = CCCCCOc1ccc(-c2ccc(-c3ccc(C(=O)*)cc3)cc2)cc1; hTyr(3S-OH,4S-OH) = N[C@H](C(=O)O)[C@H](O)[C@@H](O)c1ccc(O)cc1; X1 = C[C@H]1CN([*:1])C(C(=O)[*:2])C1O; Hyp = O=C(O)[C@@H]1C[C@@H](O)CN1; ξT = CC(O)C(N)C(=O)O

Key:
Pneumocystis murina = Pneumocystis murina mouse prophylaxis study, lung nuclei and asci counts; type: in vivo
Procedure: C3H/HeN mice (Charles River) were infected with P. murina by intranasal inoculation of P. murina organisms at 2×10^6/50 μl from a liquid nitrogen repository. Prior to inoculation, the P. murina were pre-incubated overnight in RPMI 1640 medium supplemented with calf serum and antibiotics to eliminate any bacterial contamination. The immune systems of the mice were suppressed by the addition of dexamethasone at 4 μ[…] to acidified drinking water (sulfuric acid at 1 ml/liter). Acidification is used to prevent secondary microbial infections. The mice were divided into a negative control group (control steroid-C/S), positive control group (trimethoprim/sulfamethoxazole-TMP/SMX) and treatment groups. Drugs to be tested were administered intraperitoneally (IP) on a mg/kg/d basis; dose, route, and frequency of administration varied depending on the agent being tested. […] Immune suppression and treatment continued for the entire 6 week study. At that time, the mice were euthanized by CO2 and lungs processed for analysis by homogenization. Slides were made from the lung homogenates at different dilutions and stained with Diff-Quik to quantify the trophic forms and cresyl echt violet to quantify the asci. Efficacy is based on the reduction of organism burden between the treatment groups and the negative control group was determined by microscopic evaluation. The nuclei and asci counts for each lung were log transformed and statistical analysis was determined by the analysis of variance (ANOVA); individual groups were compared by the Student-Newman-Keuls t test for multiple comparisons using GraphPad Prism.

[1] = Early pharmacokinetic studies, SC tolerability; type: in vivo, rats and monkeys; settings: lower doses (≤5 mg/kg)
C. albicans = assay: Neutropenic murine disseminated candidiasis model, PK/PD target determination; type: in vivo, Candida albicans
Procedure: Infection model. A neutropenic, murine, disseminated candidiasis model was used for the treatment studies. The mice were rendered neutropenic (polymorphonuclear cell count, <100/mm3) by injecting 150 mg/kg of cyclophosphamide (Mead Johnson Pharmaceuticals, Evansville, IN) subcutaneously 4 days before infection, 100 mg/kg of cyclophosphamide 1 day before infection, and additional cyclophosphamide doses (100 mg/kg) on Day 2 and Day 4 after infection to ensure neutropenia throughout the 168 h (7 d) study period. Three mice were included in each treatment and control group.
The organisms were subcultured on SDA plates 24 h prior to infection. The inoculum was prepared by placing 3 to 5 colonies into 5 ml of sterile pyrogen-free 0.15 M NaCl warmed to 35° C. The final inoculum was adjusted to a 0.6 transmittance at 530 nm. The fungal count of the inoculum determined by viable counts on SDA was 6.1±0.2 log10 CFU/ml.
Disseminated infection with the Candida strains was achieved by injection of 0.1 ml of the inoculum via the lateral tail vein 2 h prior to the start of antifungal therapy. At the end of the study period, the animals were sacrificed by CO2 asphyxiation. The kidneys of each mouse were aseptically removed and placed in 0.15 M NaCl at 4° C. The kidneys were homogenized and serially diluted 1:10, and the aliquots were plated onto SDA for viable fungal colony counts after incubation for 24 h at 35° C. The lower limit of detection was 100 CFU/ml. The results are expressed as the mean CFU/kidney for three mice.
Treatment efficacy and pharmacodynamic target determination of CD101. Neutropenic mice were infected with one of 10 Candida strains as described above. […] Five dose levels that varied from 0.25 to 64 mg/kg were administered once in a 0.2-ml volume by IP route for the 168 h study period. Due to enhanced effect against single isolate, additional studies at 0.0156 and 0.0625 mg/kg was examined for C. glabrata 5592. Groups of three mice were used for each dosing regimen and control group. At the end of the treatment period (168 h), the mice were euthanized, and their kidneys were immediately processed for CFU determination as described above.
Data analysis. A sigmoid dose-effect (Hill) model was used to measure the in vivo potency of CD101. The efficacy endpoints included the dose level required to produce a 24 h net static effect (no change in organism burden compared to that at the start of therapy) and the dose required to achieve a 1-log10 reduction in colony counts (relative to the burden at the start of therapy), when achieved. The maximum response (Emax) was measured as the difference in the number of CFU/kidney relative to that of the untreated control animals. The doses associated with the stasis and 1-log10 endpoint for each strain was calculated using the equation: log10 D=[log10 (E/(Emax−E))/N]+log10 ED50, where D is the drug dose, E is the control growth in untreated animals, Emax is the maximal effect, Nis the slope of the dose-response relationship, and ED50 is the dose needed to achieve 50% of the maximal effect. The associated AUC/MIC targets were then calculated for each strain. […] The calculations were performed using both total and free drug concentrations. The coefficient of determination (R^2) was used to estimate the variance that might be due to regression with the PK/PD index. Kruskal-Wallis one-way analysis of variance (ANOVA) was used to determine if the differences in PK/PD targets were significant between the species.

[2] = Median of 4 C. albicans strains

Which “asci levels (lung)” value (Pneumocystis murina; 5 CD101 treatment groups vs positive control TMP/SMX) does the source give for `CCCCCOc1ccc(-c2ccc(-c3ccc(C(=O)N[C@H]4C[C@@H](O)[C@@H](OCC[N+](C)(C)C)NC(=O)C5C(O)[C@@H](C)CN5C(=O)[C@H]([C@@H](C)O)NC(=O)[C@H]([C@H](O)[C@@H](O)c5ccc(O)cc5)NC(=O)[C@@H]5C[C@@H](O)CN5C(=O)C(C(C)O)NC4=O)cc3)cc2)cc1` (stereo partly drawn) [CD101] ({pTerphenylCO(4''-OnC5H11)}-[Orn(4R-OH,5R-OCH2CH2NMe3+)][ξT][Hyp][hTyr(3S-OH,4S-OH)]T[X1]; lactam 1-C) here?
The value was “no difference in efficacy”.

And the “asci levels (lung)” value (Pneumocystis murina; IP, all CD101 treatment groups, 6 weeks, vs negative control)?
The value was “statistically significant reduction in asci levels”.

What about the “nuclei levels (lung)” value (Pneumocystis murina; IP, all dose levels except 0.2 mg/kg/1×/week, 6 weeks, vs negative control) of the same compound?
The value was “statistically significant reduction in nuclei levels”.

What about the “human equivalent doses preventing Pneumocystis pneumonia in mice” value (Pneumocystis murina; mice) of the same compound?
The value was less than 50 mg.

And the “nuclei levels (lung)” value (Pneumocystis murina; three of the CD101 treatment groups, 6 weeks)?
Its value is “equally as efficacious as the positive control TMP/SMX”.

What about the “tolerability of subcutaneous administration” value [1] of the same compound?
The value was “well-tolerated”.

And the “1 log kill 24 h Ave Free drug AUC/MIC” value (C. albicans; 98-17)?
Its value is 3.92.

And the “1 log kill free drug AUC0-168 h/MIC” value (C. albicans; 98-17)?
Its value is 27.47.

What about the “1 log kill total drug AUC0-168 h/MIC” value (C. albicans; 98-17) of the same compound?
The value was 3433.40.

And the “Stasis 24 h Ave free drug AUC/MIC” value (C. albicans; 98-17)?
Its value is 2.19.

What about the “Stasis free drug AUC0-168 h/MIC” value (C. albicans; 98-17) of the same compound?
The value was 15.35.

And the “Stasis total drug AUC0-168 h/MIC” value (C. albicans; 98-17)?
The value was 1918.43.

What about the “1 log kill dose” value (C. albicans; 98-17, single IP dose, 168 h) of the same compound?
Its value is 2.73 mg/kg.

And the Static dose (C. albicans; 98-17, single IP dose, 168 h)?
The Static dose was 1.34 mg/kg.

What about the “1 log kill 24 h Ave Free drug AUC/MIC” value (C. albicans; 98-210) of the same compound?
The value was 6.72.

What about the “1 log kill free drug AUC0-168 h/MIC” value (C. albicans; 98-210) of the same compound?
Its value is 47.01.

And the “1 log kill total drug AUC0-168 h/MIC” value (C. albicans; 98-210)?
The value was 5875.95.

And the “Stasis 24 h Ave free drug AUC/MIC” value (C. albicans; 98-210)?
The value was 3.70.

What about the “Stasis free drug AUC0-168 h/MIC” value (C. albicans; 98-210) of the same compound?
The value was 25.93.

What about the “Stasis total drug AUC0-168 h/MIC” value (C. albicans; 98-210) of the same compound?
Its value is 3241.65.

What about the “1 log kill dose” value (C. albicans; 98-210, single IP dose, 168 h) of the same compound?
Its value is 2.28 mg/kg.

What about the Static dose (C. albicans; 98-210, single IP dose, 168 h) of the same compound?
The Static dose was 1.06 mg/kg.

What about the “1 log kill 24 h Ave Free drug AUC/MIC” value (C. albicans; 580) of the same compound?
The value was 3.05.

What about the “1 log kill free drug AUC0-168 h/MIC” value (C. albicans; 580) of the same compound?
The value was 21.34.

And the “1 log kill total drug AUC0-168 h/MIC” value (C. albicans; 580)?
The value was 2667.21.

What about the “Stasis 24 h Ave free drug AUC/MIC” value (C. albicans; 580) of the same compound?
Its value is 2.02.

And the “Stasis free drug AUC0-168 h/MIC” value (C. albicans; 580)?
The value was 14.15.

What about the “Stasis total drug AUC0-168 h/MIC” value (C. albicans; 580) of the same compound?
The value was 1769.30.

And the “1 log kill dose” value (C. albicans; 580, single IP dose, 168 h)?
The value was 2.03 mg/kg.

And the Static dose (C. albicans; 580, single IP dose, 168 h)?
Its Static dose is 1.20 mg/kg.

And the “1 log kill 24 h Ave Free drug AUC/MIC” value (C. albicans; K-1)?
The value was 6.86.

And the “1 log kill free drug AUC0-168 h/MIC” value (C. albicans; K-1)?
Its value is 48.05.

And the “1 log kill total drug AUC0-168 h/MIC” value (C. albicans; K-1)?
The value was 6005.95.

And the “Stasis 24 h Ave free drug AUC/MIC” value (C. albicans; K-1)?
The value was 3.65.

And the “Stasis free drug AUC0-168 h/MIC” value (C. albicans; K-1)?
The value was 25.58.

And the “Stasis total drug AUC0-168 h/MIC” value (C. albicans; K-1)?
Its value is 3197.16.

What about the “1 log kill dose” value (C. albicans; K-1, single IP dose, 168 h) of the same compound?
The value was 5.26 mg/kg.

What about the Static dose (C. albicans; K-1, single IP dose, 168 h) of the same compound?
The Static dose was 2.52 mg/kg.

What about the “1 log kill 24 h Ave Free drug AUC/MIC” value (C. albicans; Mean of 4 C. albicans strains) of the same compound?
Its value is 5.14.

And the “1 log kill dose” value (C. albicans; Mean of 4 C. albicans strains)?
The value was 3.08 mg/kg.

What about the “1 log kill free drug AUC0-168 h/MIC” value (C. albicans; Mean of 4 C. albicans strains) of the same compound?
The value was 35.97.

And the “1 log kill total drug AUC0-168 h/MIC” value (C. albicans; Mean of 4 C. albicans strains)?
Its value is 4495.63.

And the “Stasis 24 h Ave free drug AUC/MIC” value (C. albicans; Mean of 4 C. albicans strains)?
The value was 2.89.

And the “Stasis free drug AUC0-168 h/MIC” value (C. albicans; Mean of 4 C. albicans strains)?
The value was 20.25.

What about the “Stasis total drug AUC0-168 h/MIC” value (C. albicans; Mean of 4 C. albicans strains) of the same compound?
Its value is 2531.64.

What about the Static dose (C. albicans; Mean of 4 C. albicans strains) of the same compound?
Its Static dose is 1.53 mg/kg.

What about the “1 log kill 24 h Ave Free drug AUC/MIC” value (C. albicans; [2]) of the same compound?
Its value is 5.32.

And the “1 log kill dose” value (C. albicans; [2])?
Its value is 2.51 mg/kg.

And the “1 log kill free drug AUC0-168 h/MIC” value (C. albicans; [2])?
Its value is 37.24.

And the “1 log kill total drug AUC0-168 h/MIC” value (C. albicans; [2])?
Its value is 4654.68.

And the “Stasis 24 h Ave free drug AUC/MIC” value (C. albicans; [2])?
The value was 2.92.

What about the “Stasis free drug AUC0-168 h/MIC” value (C. albicans; [2]) of the same compound?
Its value is 20.5 and 20.46.

And the “Stasis total drug AUC0-168 h/MIC” value (C. albicans; [2])?
The value was 2557.79.

And the Static dose (C. albicans; [2])?
The Static dose was 1.27 mg/kg.

What about the “kill at high doses” value (C. albicans; a number of strains, kidney burden, 168 h) of the same compound?
The value was greater than 2 log10.
